The text below walks through data of patent US7109193B2, “Tricyclic diazepines tocolytic oxytocin receptor antagonists” (Wyeth, priority 2001, dated 2006).

This assay deals with T1, human vasopressin V2 receptor subtype (Homo sapiens, UniProt P30518).
T1 construct: host or cells: CHO cells (pZeoSV vector)
T1 sequence (P30518 whole entry): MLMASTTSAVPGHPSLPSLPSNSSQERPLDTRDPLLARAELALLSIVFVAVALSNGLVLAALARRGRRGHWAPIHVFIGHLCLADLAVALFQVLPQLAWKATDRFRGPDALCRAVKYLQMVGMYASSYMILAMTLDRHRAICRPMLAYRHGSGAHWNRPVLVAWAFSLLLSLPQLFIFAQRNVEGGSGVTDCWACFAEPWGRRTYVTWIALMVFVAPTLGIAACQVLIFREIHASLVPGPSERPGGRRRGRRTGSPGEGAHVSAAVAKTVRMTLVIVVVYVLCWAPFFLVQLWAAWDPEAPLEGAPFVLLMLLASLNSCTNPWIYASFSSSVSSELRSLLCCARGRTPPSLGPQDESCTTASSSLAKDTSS
In words: Vasopressin binding in Chinese Hamster Ovary cell membranes expressing human vasopressin V2 subtype receptors. Particulars: 100 nM, CHO cell membranes, [3H]arginine vasopressin, values without parentheses. As to the method: Vasopressin Binding in Chinese Hamster Ovary Cell Membranes Expressing Human Vasopressin V2 Subtype Receptors
Chinese Hamster Ovary (CHO) cells stably transfected with the human V2 subtype receptors were obtained from M. Thibonnier, Case Western Reserve University School of Medicine, Cleveland, Ohio.
A. Passaging and Amplification of Cells:
The trypsin is removed by aspiration and the cells dislodged by tapping. Cell Culture medium (e.g. 30 mL for 1:30 split) is immediately added and mixed well to inactivate trypsin. 1 mL of detached cells is added to new culture flasks containing fresh Cell Culture medium (e.g. into 25 mL per T-150 flask), and mixed gently. The cells are incubated at 37° C. in 5% CO2. The medium is changed at 3 to 4 day interval (or as appropriate). […] All steps are done under sterile conditions. B. Membrane Preparation: The cells are washed twice gently with Hank's Balanced Salt solution (e.g. use 10 mL per T-150 flask). […] The contents are transferred to centrifuge tubes (50 mL) kept in ice bath. All subsequent steps are done at 4° C. The tubes are centrifuged at 300×g for 15 min (1380 rpm on SORVAL, Model RT6000D, using the rotor for 50 mL tubes). The supernatant is discarded and the cells suspended in homogenizing buffer (10 mM Tris-HCl containing 0.25 M sucrose and 1 mM EDTA, pH 7.4) ensuring that the volume of the buffer is about ten times the volume of the cell pellet. The cells are pooled into a centrifuge tube (50 mL) and homogenized with a Polytron at setting 6 for 10 sec. The homogenate is transferred into a Potter-Elvjehm homogenizer and homogenized with 3 strokes. The homogenate is centrifuged at 1500×g for 60 min at 4° C. (3100 rpm using SORVAL, model RT6000D, using the rotor for 50 mL tubes). The pellet is discarded. The supernatant is centrifuged at 100,000×g for 60 min. at 4° C. (Beckman L8-80M ultracentrifuge; spin at 37,500 rpm with rotor type 70 Ti for 50 mL tubes; 38,000 rpm with type 80Ti for 15 mL tubes; or 35,800 rpm with rotor type 45Ti). The supernantant is discarded and the pellet suspended in 3 to 4 mL of Tris buffer (50 mM TRIS-HCl, pH 7.4). The protein content is estimated by the Bradford or Lowry method. The volume of the membrane suspension is adjusted with the membrane buffer (50 mM Tris-HCl containing 0.1% BSA and 0.1 mM PMSF) to give 3.0 mg/mL (or as appropriate) of protein. The membranes are aliquoted and stored at −70° C. C. Radioligand Binding Assay: In wells of a 96-well format microtiter plate, is added 90, 110 or 130 μL (to make up a final volume of 200 μL) of assay buffer containing 50 mM of Tris-HCl (pH 7.4), […], 1 mg % aprotinin, 1 mg % leupeptin, 2 mg % 1,10-phenanthroline, 10 mg % trypsin inhibitor, and 0.1 mM PMSF. The inhibitors are added on the day of the experiment. The components are mixed at room temperature, and then kept in ice bath following adjustment of the pH to 7.4. […] For vasopressin and other peptide ligands 20 μL of 50% DMSO is added and the assay buffer volume is adjusted accordingly. To each well is added 50 μL of frozen membrane suspension thawed immediately prior to use and diluted in assay buffer to the required concentration (equivalent to 25 to 50 μg of protein/well as needed). 20 μL of 8 nM [^3H]arginine vasopressin ligand in the assay buffer, prepared just before use is added and incubated at room temperature for 60 min. shaking the plate on a mechanical shaker for the first 15 min. The incubation is stopped by rapid filtration of the plate contents followed by wash with ice-cold buffer (50 mM Tris-HCl, pH 7.4) using a cell harvester (Tomtek and Printed filtermat-B filter paper). The filter paper is thoroughly dried (7–12 min. in a microwave oven) and impregnated with MeltiLex B/H melt-on scintillation wax sheets and the radioactivity counted in a betaplate scintillation counter.
`COc1cc2c(cc1OC)N(C(=O)c1ccc(-c3ccccc3C(F)(F)F)c(C)c1)Cc1ccc(C(=O)N(C)CCCN(C)C)n1C2.Cl` [Example 13, N-Methyl-[N-(3-dimethylamino)propyl]-7,8-dimethoxy-10-{[2-methyl-2′-(trifluoromethyl)[1,1′-biphenyl]-4-yl]carbonyl}-10,11-dihydro-5H-pyrrolo[2,1-c][1,4]benzodiazepine-3-carboxamide hydrochloride salt]: the “V2 % inhibition @ 100 nM” value was −4%.

As for `COc1cc(C(=O)N2Cc3ccc(C(=O)N4CC[C@@H](N(C)C)C4)n3Cc3ccccc32)ccc1-c1ccccc1C` [Example 281, [(3R)-3-(Dimethylamino)pyrrolidinyl]{10-[(2-methoxy-2′-methyl[1,1′-biphenyl]-4-yl)carbonyl]-10,11-dihydro-5H-pyrrolo[2,1-c][1,4]benzodiazepin-3-yl}methanone], the “V2 % inhibition @ 100 nM” value is reported as −9%. Regarding `COc1cc(C(=O)N2Cc3ccc(C(=O)N(C)CCCN(C)C)n3Cc3ccccc32)ccc1-n1c(C)ccc1C` [Example 310, N-[3-(Dimethylamino)propyl]-10-[4-(2,5-dimethyl-i H-pyrrol-1-yl)-3-methoxybenzoyl]-N-methyl-10,11-dihydro-5H-pyrrolo[2,1-c][1,4]benzodiazepine-3-carboxamide], the “V2 % inhibition @ 100 nM” value is 12%. Take `COc1cccc(-c2ccc(C(=O)N3Cc4ccc(C(=O)N5CCC(N6CCCC6)CC5)n4Cc4ccccc43)cc2C)c1` [Example 139, {10-[(3′-Methoxy-2-methyl[1,1′-biphenyl]-4-yl)carbonyl]-10,11-dihydro-5H-pyrrolo[2,1-c][1,4]benzodiazepin-3-yl}[4-(1-pyrrolidinyl)-1-piperidinyl]methanone]: the inhibition at 0.1 µM was 12%. The same measure, in the same setting: with `Cc1ccccc1-c1ccc(C(=O)N2Cc3ccc(C(=O)NCCN4CCCCC4)n3Cc3ccccc32)cc1C` [Example 150, 10-[(2,2′-Dimethyl[1,1′-biphenyl]-4-yl)carbonyl]-N-[2-(1-piperidinyl)ethyl]-10,11-dihydro-5H-pyrrolo[2,1-c][1,4]benzodiazepine-3-carboxamide] the figure was 18%. Consider `COc1ccccc1-c1ccc(C(=O)N2Cc3ccc(C(=O)N4CC[C@@H](N(C)C)C4)n3Cc3ccccc32)cc1` [Example 279, [(3R)-3-(Dimethylamino)pyrrolidinyl]{10-[(2′-methoxy[1,1′-biphenyl]-4-yl)carbonyl]-10,11-dihydro-5H-pyrrolo[2,1-c][1,4]benzodiazepin-3-yl}methanone], for which the “V2 % inhibition @ 100 nM” value is listed as 17%. As to `Cc1ccccc1-c1ccc(C(=O)N2Cc3ccc(C(=O)NCCCn4ccnc4)n3Cc3ccccc32)cc1C` [Example 124, 10-[(2,2′-Dimethyl[1,1′-biphenyl]-4-yl)carbonyl]-N-[3-(1H-imidazol-1-yl)propyl]-10,11-dihydro-5H-pyrrolo[2,1-c][1,4]benzodiazepine-3-carboxamide], the inhibition at 0.1 µM came to 21%. As for `COc1ccccc1-c1ccc(C(=O)N2Cc3ccc(C(=O)N4CCC[C@H]4CN4CCCC4)n3Cc3ccccc32)cc1` [Example 265, {10-[(2′-Methoxy[1,1′-biphenyl]-4-yl)carbonyl]-10,11-dihydro-5H-pyrrolo[2,1-c][1,4]benzodiazepin-3-yl}[(2S)-2-(1-pyrrolidinylmethyl)pyrrolidinyl]methanone], the “V2 % inhibition @ 100 nM” value was 10%. With `COc1cc(C(=O)N2Cc3ccc(C(=O)N4CCC(N5CCCCC5)CC4)n3Cc3ccccc32)ccc1-c1ccccc1C` [Example 116, {10-[(2-Methoxy-2′-methyl[1,1′-biphenyl]-4-yl)carbonyl]-10,11-dihydro-5H-pyrrolo[2,1-c][1,4]benzodiazepin-3-yl}[4-(1-piperidinyl)-1-piperidinyl]methanone], the inhibition at 0.1 µM came to 22%. On the same count and under the same terms, under `Cc1ccccc1-c1ccc(C(=O)N2Cc3ccc(C(=O)N4CCC(N5CCCCC5)CC4)n3Cc3ccccc32)cc1` [Example 115, {10-[(2′-Methyl[1,1′-biphenyl]-4-yl)carbonyl]-10,11-dihydro-5H-pyrrolo[2,1-c][1,4]benzodiazepin-3-yl}[4-(1-piperidinyl)-1-piperidinyl]methanone] stands 12%. Take `COc1cc(-c2ccccc2C)c(Cl)cc1C(=O)N1Cc2ccc(C(=O)NCCCn3ccnc3)n2Cc2ccccc21` [Example 129, 10-[(6-Chloro-3-methoxy-2′-methyl[1,1′-biphenyl]-4-yl)carbonyl]-N-[3-(1H-imidazol-1-yl)propyl]-10,11-dihydro-5H-pyrrolo[2,1-c][1,4]benzodiazepine-3-carboxamide]: the inhibition at 0.1 µM came out at 5%. Consider `COc1cccc(-c2ccc(C(=O)N3Cc4ccc(C(=O)N5CC[C@@H](N(C)C)C5)n4Cc4ccccc43)cc2OC)c1` [Example 283, {10-[(2,3′-Dimethoxy[1,1′-biphenyl]-4-yl)carbonyl]-10,11-dihydro-5H-pyrrolo[2,1-c][1,4]benzodiazepin-3-yl}[(3R)-3-(dimethylamino)pyrrolidinyl]methanone], for which the “V2 % inhibition @ 100 nM” value turned out to be 29%. Consider `Cc1ccccc1-c1ccc(C(=O)N2Cc3ccc(C(=O)NCCN4CCCCC4)n3Cc3ccccc32)cc1` [Example 153, 10-[(2′-Methyl[1,1′-biphenyl]-4-yl)carbonyl]-N-[2-(1-piperidinyl)ethyl]-10,11-dihydro-5H-pyrrolo[2,1-c][1,4]benzodiazepine-3-carboxamide], for which the inhibition at 0.1 µM was 11%. In the case of `COc1cc(C(=O)N2Cc3ccc(C(=O)NCCCn4ccnc4)n3Cc3ccccc32)ccc1-c1ccccc1C` [Example 128, N-[3-(1H-Imidazol-1-yl)propyl]-10-[(2-methoxy-2′-methyl[1,1′-biphenyl]-4-yl)carbonyl]-10,11-dihydro-5H-pyrrolo[2,1-c][1,4]benzodiazepine-3-carboxamide], the inhibition at 0.1 µM was determined as 17%. Same read-out and setting: under `Cc1ccccc1-c1ccc(C(=O)N2Cc3ccc(C(=O)N4CCC(N5CCCCC5)CC4)n3Cc3ccccc32)cc1C` [Example 113, {10-[(2-Methyl-2′-methyl[1,1′-biphenyl]-4-yl)carbonyl]-10,11-dihydro-5H-pyrrolo[2,1-c][1,4]benzodiazepin-3-yl}[4-(1-piperidinyl)-1-piperidinyl]methanone] stands 9%. Take `COc1cccc(-c2cc(OC)c(C(=O)N3Cc4ccc(C(=O)N5CCC[C@H]5CN5CCCC5)n4Cc4ccccc43)cc2Cl)c1` [Example 268, {10-[(6-Chloro-3,3′-dimethoxy[1,1′-biphenyl]-4-yl)carbonyl]-10,11-dihydro-5H-pyrrolo[2,1-c][1,4]benzodiazepin-3-yl}[(2S)-2-(1-pyrrolidinylmethyl)pyrrolidinyl]methanone]: the “V2 % inhibition @ 100 nM” value is on record as 34%.

For `COc1cccc(-c2ccc(C(=O)N3Cc4ccc(C(=O)NCCCn5ccnc5)n4Cc4ccccc43)cc2C)c1` [Example 125, N-[3-(1H-Imidazol-1-yl)propyl]-10-[(3′-methoxy-2-methyl[1,1′-biphenyl]-4-yl)carbonyl]-10,11-dihydro-5H-pyrrolo[2,1-c][1,4]benzodiazepine-3-carboxamide], the inhibition at 0.1 µM was 8%.

For the compound `Cc1cc(C(=O)N2Cc3ccc(C(=O)N(CCCN(C)C)CCCN(C)C)n3Cc3ccccc32)ccc1-c1ccccc1C(F)(F)F` [Example 3, 10-[(2-Methyl-2′-trifluoromethyl-[1,1′-biphenyl]-4-yl)-carbonyl]-10,11-dihydro-5H-pyrrolo[2,1-c][1,4]benzodiazepine-3-carboxylic acid bis-(3-dimethylamino-propyl)-amide], the inhibition at 0.1 µM was 22%.
